The values that follow come from US9228991B2, “Methods and kits for detection of drugs” (RAMOT AT TEL-AVIV UNIVERSITY LTD., priority 2010, dated 2016).

The conditions of series [1]: cited from earlier work.
For series [2] the following is noted: cited from earlier work. The source holds these as a separate data set.
The nature of series [3]: GHB solubility / precipitation in anti-solvents.

Like-named read-outs stand apart in the source and are kept apart here.

In the case of `CNC1(c2ccccc2Cl)CCCCC1=O` (centres unmarked) [ketamine], the “Physical Effect” value in series [1] (ketamine dose 10-80 mg (low), <0.01-0.08% in drink) was “Mild euphoria”; in series [1] (ketamine dose 130-250 mg (high), 0.13-0.25% in drink), “K-hole, near comatose state”; in series [1] (ketamine dose >250 mg (mega), >0.25% in drink), “Powerful deep sleep”.
Consider `O=C(O)CCCO` [GHB, gamma-hydroxybutyrate], for which the “Physical Effect” value in series [2] (GHB dose 4-8 (very high), 4-8% in drink) is “Powerful deep sleep”. Besides, in series [2] (depending on body weight and metabolism), the “dose at which a dangerous overdose can occur” value was “two”. In addition, the heavy dose entry in series [2] (in vivo) is “approximately 2.5 grams”. Further, the solubility in anti-solvent entry in series [3] (acetonitrile) and in series [3] (pure ethanol) was “mostly insoluble” in each case.
